Patent US20190119284A1, “ErbB Inhibitors and Uses Thereof” (The Regents of the University of California, priority 2016, published 2019)

Key:
PIM-1-KINASE = PIM-1-KINASE (Homo sapiens, UniProt P11309); test: Nanosyn in vitro kinase profiling: PIM-1-KINASE; assay type: biochemical; conditions: for inhibition at 1 µM: compound at 1 μM
Description: (§1) This was confirmed by in vitro profiling against a panel of kinases, with compound 2 only showing potent inhibition of EGFR and Ab1 (Table 2).
(§2) In vitro Kinome Screen. In vitro profiling of compound 2 at 100 nM was conducted by Nanosyn.

SGK1 = molecular target: T1, SGK1 (Homo sapiens, UniProt O00141); test: Nanosyn in vitro kinase profiling: SGK1; assay type: biochemical; conditions: for inhibition at 1 µM: compound at 1 μM
T1 sequence (O00141 1-431): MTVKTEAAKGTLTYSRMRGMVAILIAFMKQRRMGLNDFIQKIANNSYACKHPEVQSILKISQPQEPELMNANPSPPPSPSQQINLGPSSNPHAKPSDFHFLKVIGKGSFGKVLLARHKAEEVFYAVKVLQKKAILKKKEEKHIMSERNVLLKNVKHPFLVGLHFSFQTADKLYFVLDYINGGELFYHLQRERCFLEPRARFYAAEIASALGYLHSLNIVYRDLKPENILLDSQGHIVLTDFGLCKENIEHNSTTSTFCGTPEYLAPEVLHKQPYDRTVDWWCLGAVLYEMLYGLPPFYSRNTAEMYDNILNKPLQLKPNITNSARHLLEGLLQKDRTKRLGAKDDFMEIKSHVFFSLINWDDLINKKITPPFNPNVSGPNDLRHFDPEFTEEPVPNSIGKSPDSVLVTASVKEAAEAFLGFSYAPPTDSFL
Description: as §1, §2

PAK2 = PAK2 (Homo sapiens, UniProt Q13177); test: Nanosyn in vitro kinase profiling: PAK2; assay type: biochemical; conditions: for inhibition at 1 µM: compound at 1 μM
Chain of PAK2 (Q13177 whole entry, species assumed): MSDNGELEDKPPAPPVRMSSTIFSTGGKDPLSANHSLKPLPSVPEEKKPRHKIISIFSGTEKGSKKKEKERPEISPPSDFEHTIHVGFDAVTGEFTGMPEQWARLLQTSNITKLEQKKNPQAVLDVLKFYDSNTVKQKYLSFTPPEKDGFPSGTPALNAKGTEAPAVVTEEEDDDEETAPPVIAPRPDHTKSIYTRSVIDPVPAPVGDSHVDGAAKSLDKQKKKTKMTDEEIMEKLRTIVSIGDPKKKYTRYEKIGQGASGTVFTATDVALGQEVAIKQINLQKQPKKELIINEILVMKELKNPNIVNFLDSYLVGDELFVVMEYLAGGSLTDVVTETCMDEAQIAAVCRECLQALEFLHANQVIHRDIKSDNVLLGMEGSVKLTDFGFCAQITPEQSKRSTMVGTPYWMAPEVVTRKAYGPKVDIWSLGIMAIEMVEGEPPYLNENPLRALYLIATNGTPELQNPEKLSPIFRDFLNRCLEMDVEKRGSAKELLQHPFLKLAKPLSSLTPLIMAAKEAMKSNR
Description: as §1, §2

ITK = molecular target: T2, ITK (Homo sapiens, UniProt Q08881); test: Nanosyn in vitro kinase profiling: ITK; assay type: biochemical; conditions: for inhibition at 1 µM: compound at 1 μM
T2 sequence (Q08881 1-620): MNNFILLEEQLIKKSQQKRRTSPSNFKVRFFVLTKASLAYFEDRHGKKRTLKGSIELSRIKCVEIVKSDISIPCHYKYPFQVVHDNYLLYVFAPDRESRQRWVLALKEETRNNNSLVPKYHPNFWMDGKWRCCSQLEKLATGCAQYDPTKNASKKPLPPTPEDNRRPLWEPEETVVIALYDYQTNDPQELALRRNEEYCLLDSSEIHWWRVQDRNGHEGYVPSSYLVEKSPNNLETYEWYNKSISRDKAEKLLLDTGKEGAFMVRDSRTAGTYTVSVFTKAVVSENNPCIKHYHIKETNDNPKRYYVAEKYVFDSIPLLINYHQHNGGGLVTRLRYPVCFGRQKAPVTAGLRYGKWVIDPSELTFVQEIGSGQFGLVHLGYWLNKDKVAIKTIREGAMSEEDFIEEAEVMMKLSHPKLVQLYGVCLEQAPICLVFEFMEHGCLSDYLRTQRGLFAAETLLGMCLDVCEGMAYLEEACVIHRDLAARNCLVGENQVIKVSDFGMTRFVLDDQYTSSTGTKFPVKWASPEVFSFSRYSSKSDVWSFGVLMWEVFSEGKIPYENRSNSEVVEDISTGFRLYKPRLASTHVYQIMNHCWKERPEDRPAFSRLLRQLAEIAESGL
Description: as §1, §2

LCK = LCK (Homo sapiens, UniProt P06239); test: Nanosyn in vitro kinase profiling: LCK; assay type: biochemical; conditions: for inhibition at 1 µM: compound at 1 μM
Chain of LCK (P06239 whole entry): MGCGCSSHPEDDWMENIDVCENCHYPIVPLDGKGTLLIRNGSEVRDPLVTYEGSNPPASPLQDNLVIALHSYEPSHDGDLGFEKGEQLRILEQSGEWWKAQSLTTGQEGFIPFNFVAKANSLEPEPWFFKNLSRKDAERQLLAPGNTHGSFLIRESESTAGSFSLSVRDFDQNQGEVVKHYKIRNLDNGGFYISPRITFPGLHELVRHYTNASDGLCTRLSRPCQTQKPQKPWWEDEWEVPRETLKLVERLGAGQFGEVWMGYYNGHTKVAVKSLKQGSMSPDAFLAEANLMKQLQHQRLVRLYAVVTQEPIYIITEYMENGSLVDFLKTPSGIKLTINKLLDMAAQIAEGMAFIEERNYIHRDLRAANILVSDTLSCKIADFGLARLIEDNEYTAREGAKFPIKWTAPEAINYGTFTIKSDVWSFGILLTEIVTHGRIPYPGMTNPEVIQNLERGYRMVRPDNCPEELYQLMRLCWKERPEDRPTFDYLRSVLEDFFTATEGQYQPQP
Description: as §1, §2

ABL1 = ABL1 (Homo sapiens, UniProt P00519); test: Nanosyn in vitro kinase profiling: ABL1; assay type: biochemical; conditions: for inhibition at 1 µM: compound at 1 μM
Chain of ABL1 (P00519 whole entry): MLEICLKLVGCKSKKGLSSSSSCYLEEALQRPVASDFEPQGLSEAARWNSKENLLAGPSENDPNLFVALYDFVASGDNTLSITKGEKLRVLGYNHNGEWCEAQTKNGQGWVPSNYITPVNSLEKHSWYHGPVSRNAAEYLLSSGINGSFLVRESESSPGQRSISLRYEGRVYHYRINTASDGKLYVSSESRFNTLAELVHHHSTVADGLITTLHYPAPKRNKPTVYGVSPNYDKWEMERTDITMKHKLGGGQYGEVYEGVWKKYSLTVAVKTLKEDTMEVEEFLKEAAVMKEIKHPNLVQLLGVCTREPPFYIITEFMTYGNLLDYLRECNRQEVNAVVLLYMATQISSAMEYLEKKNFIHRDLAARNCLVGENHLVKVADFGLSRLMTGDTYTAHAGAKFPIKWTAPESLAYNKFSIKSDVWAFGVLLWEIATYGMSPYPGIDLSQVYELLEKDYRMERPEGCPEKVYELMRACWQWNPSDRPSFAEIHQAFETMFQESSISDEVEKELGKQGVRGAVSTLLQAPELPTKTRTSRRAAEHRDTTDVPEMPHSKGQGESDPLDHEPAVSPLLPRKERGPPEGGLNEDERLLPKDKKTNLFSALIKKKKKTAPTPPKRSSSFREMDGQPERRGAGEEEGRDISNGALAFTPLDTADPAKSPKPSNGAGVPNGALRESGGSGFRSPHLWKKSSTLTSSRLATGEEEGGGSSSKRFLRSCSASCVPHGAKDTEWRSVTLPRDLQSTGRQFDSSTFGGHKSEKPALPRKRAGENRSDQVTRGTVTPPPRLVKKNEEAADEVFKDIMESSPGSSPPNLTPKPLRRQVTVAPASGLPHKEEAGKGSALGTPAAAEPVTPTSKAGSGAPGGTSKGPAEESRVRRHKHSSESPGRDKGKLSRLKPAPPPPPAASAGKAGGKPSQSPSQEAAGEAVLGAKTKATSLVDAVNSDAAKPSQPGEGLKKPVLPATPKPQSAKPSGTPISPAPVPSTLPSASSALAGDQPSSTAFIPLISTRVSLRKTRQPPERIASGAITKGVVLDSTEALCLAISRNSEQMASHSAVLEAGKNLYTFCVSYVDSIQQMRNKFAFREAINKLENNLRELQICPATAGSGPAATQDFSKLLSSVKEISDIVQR
Description: as §1, §2

MST1 = molecular target: T3, MST1 (Homo sapiens, UniProt Q13043); test: Nanosyn in vitro kinase profiling: MST1; assay type: biochemical; conditions: for inhibition at 1 µM: compound at 1 μM
T3 sequence (Q13043 1-487): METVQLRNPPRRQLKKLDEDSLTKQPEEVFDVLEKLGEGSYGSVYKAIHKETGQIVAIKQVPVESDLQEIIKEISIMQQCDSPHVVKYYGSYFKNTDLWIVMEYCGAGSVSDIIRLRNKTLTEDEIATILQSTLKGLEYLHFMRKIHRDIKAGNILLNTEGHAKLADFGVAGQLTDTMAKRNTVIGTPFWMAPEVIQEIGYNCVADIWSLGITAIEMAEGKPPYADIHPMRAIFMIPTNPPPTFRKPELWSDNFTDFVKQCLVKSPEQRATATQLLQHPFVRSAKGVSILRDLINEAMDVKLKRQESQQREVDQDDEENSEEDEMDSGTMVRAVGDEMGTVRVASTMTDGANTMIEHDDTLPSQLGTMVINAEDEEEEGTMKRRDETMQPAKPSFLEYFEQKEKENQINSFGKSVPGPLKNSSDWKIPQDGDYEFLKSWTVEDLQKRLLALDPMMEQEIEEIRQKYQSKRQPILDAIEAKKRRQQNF
Description: as §1, §2

[1] = system: 2YF/3wt + IL-3 Ba/F3 cells; test: Ba/F3 proliferation assay, 2YF/3wt + IL-3; assay type: cell-based; conditions: Mus musculus, BaF3; Table 4; ± S.D., n = 3; 48 h Cell Titer Glo
Description: To validate the screen and test the effectiveness of counter-screening with either the same 2YF/3wt Ba/F3 cell line or the parental Ba/F3's in the presence of IL-3 to remove cytotoxic primary hits, we first tested a panel of kinase inhibitors with established mechanisms of action.
Proliferation Assays. For adherent cell lines, cells were plated onto opaque white 96 well plates (Greiner cat #655083) and allowed to adhere overnight. The following day media was changed to fresh media that contained either DMSO or the indicated concentration of drug plus NRG (50 ng/mL final concentration) as indicated. Plates were incubated at 37° C. for 72 h and proliferation was read out using Cell Titer Glo (Promega) according to the manufacturer's protocol. For Ba/F3 cell proliferation, cells, drug dilution, and any necessary growth factors (10 ng/mL IL-3 or 6.25 ng/mL NRG) were combined in a well of a 96 well plate. Plates were incubated at 37° C. for 48 h and proliferation was read out using Cell Titer Glo according to the manufacturer's protocol. For all normalized assays, proliferation was normalized to the DMSO control condition. All graphs were plotted in GraphPad Prism 6 and fit with a non-linear regression of the log(inhibitor) vs response with a variable slope where shown. All graphs are averages (+/−standard deviation) of biological triplicates each performed in technical triplicate unless otherwise noted. If only one biological replicate was performed standard deviations were derived from the technical replicates.

[2] = system: HER2/HER3 heterodimer signaling in MCF-7 cells; test: HER2/HER3 signaling in MCF-7 cells, pre-treat vs simultaneous NRG addition; assay type: cell-based
Description: FIGS. 2A-2D. […] FIG. 2B: NRG rescues the 72 h proliferation of CW-2 cells, which contain an activating mutation in HER3 (E928G), from HER2 inhibitors (mean±SD, n=3).
FIG. 17. MCF-7 cells were serum starved for 24 h and then either treated with compound 3 for 15 min followed by a 15 min NRG stimulation (15 min pre-treat), or compound 3 and NRG were added simultaneously for 15 min (simultaneous addition).

Chain of PIM-1-KINASE (P11309 whole entry): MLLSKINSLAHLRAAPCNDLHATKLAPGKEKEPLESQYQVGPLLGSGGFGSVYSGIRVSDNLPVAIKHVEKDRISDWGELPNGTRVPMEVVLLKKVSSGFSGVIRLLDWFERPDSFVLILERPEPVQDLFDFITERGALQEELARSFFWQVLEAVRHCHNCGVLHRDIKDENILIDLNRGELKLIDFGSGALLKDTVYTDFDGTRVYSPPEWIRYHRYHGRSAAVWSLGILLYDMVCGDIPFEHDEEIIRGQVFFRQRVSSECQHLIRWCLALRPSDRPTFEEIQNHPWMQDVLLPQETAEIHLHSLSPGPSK

| SMILES | inhibition at 0.1 µM (PIM-1-KINASE; compound at 100 nM) [%] | inhibition at 1 µM (PIM-1-KINASE) [%] | inhibition at 0.1 µM (SGK1; compound at 100 nM) [%] | inhibition at 1 µM (SGK1) [%] | inhibition at 0.1 µM (PAK2; compound at 100 nM) [%] | inhibition at 1 µM (PAK2) [%] | inhibition at 0.1 µM (ITK; compound at 100 nM) [%] | inhibition at 1 µM (ITK) [%] | inhibition at 0.1 µM (LCK; compound at 100 nM) [%] | inhibition at 1 µM (LCK) [%] | inhibition at 0.1 µM (ABL1; compound at 100 nM) [%] | inhibition at 1 µM (ABL1) [%] | inhibition at 0.1 µM (MST1; compound at 100 nM) [%] | inhibition at 1 µM (MST1) [%] | IC50 [1] [nM] | shift in ability to inhibit signaling +/- pre-incubation ([2]; MCF-7, 15 min pre-treat vs simultaneous NRG) | efficacy on signaling, 15 min pre-treat vs simultaneous addition with NRG ([2]; MCF-7, serum starved 24 h) |
| --- | --- | --- | --- | --- | --- | --- | --- | --- | --- | --- | --- | --- | --- | --- | --- | --- | --- |
| COc1ccc(-c2ccco2)cc1Nc1ncnc2[nH]nc(-c3ccco3)c12 [compound 2, 3-(furan-2-yl)-N-(5-(furan-2-yl)-2-methoxyphenyl)-1H-pyrazolo[3,4-d]pyrimidin-4-amine] | 4.08 | 8.71 | 14.4 | 53.4 | 0.085 | 1.07 | 1.24 | 13.9 | 74.2 | 93.6 | 95.2 | 97.2 | 3.85 | 19.9 |  |  |  |
| COc1ccc(-c2ccoc2)cc1Nc1ncnc2[nH]cc(-c3cc[nH]n3)c12 [compound 3, N-(5-(furan-3-yl)-2-methoxyphenyl)-5-(1H-pyrazol-3-yl)-7H-pyrrolo[2,3-d]pyrimidin-4-amine] |  | 7 |  | 31 |  | 3 |  | 24 |  | 98 |  | 98 |  | 84 | 2540 ± 217 | little to no shift |  |
| CS(=O)(=O)CCNCc1ccc(-c2ccc3ncnc(Nc4ccc(OCc5cccc(F)c5)c(Cl)c4)c3c2)o1 [lapatinib] |  |  |  |  |  |  |  |  |  |  |  |  |  |  | > 3330 |  | reduced efficacy of lapatinib when simultaneously added with NRG |
